{"source": "paper PMC10375191", "about": "“Transformable Neuropeptide Prodrug with Tumor Microenvironment Responsiveness for Tumor Growth and Metastasis Inhibition of Triple‐Negative Breast Cancer” (Advanced Science, 2023)", "key": {"healthy ICR mice": {"system": "healthy ICR mice", "experiment": "Maximum tolerated dose / acute toxicity study", "from_the_text": "Animal survival of each group (n = 10, 5 female and 5 male) was continuously recorded for 14 days. Eventually, the evaluation and calculation of the median lethal dose (LD50) were completed with these collected data using the Bliss rule."}, "[1]": {"system": "MDA‐MB‐231 xenograft model", "experiment": "In vivo antitumor evaluation, MDA-MB-231 xenograft", "parameters": "species or system mouse", "details": "MDA-MB-231 tumor-bearing nude mice; DOX-P18 up to 100 mg kg^−1 (20 mg kg^−1 DOX); DOX at 10 and 20 mg kg^−1", "from_the_text": "(§1) All the animal experimental procedures were recognized and approved by the Regional Ethics Committee for Animal Experiments at Ningbo University, China (Permit NO. SYXK (Zhe) 2019‐0005). The triple‐negative breast cancer (TNBC) xenograft tumors were established on female BALB/c nude mice (≈15 g) by subcutaneous injection of MDA‐MB‐231 cells (5 × 10^6 cells in each mouse). TNBC metastasis models were constructed by injecting MDA‐MB‐231‐luc cells (1 × 10^5 cells in each mouse) through the tail vein to female BALB/c nude mice. The day that MDA‐MB‐231‐luc was injected was set as D0. In vivo imaging system (IVIS) (Lumina XRMS Ш, PerkinElmer, USA) was utilized to identify the tumor metastasis at D12.\nWhen the tumor volume of BALB/c mice reached ≈70 mm^3 (V = L × W × W/2), the tumor‐bearing mice were randomly divided into seven groups (n = 5 for each group). […] 100 µL drug was injected intravenously through the tail vein every other day for a total of five times. The day that the first injection was given was set as D0. Tumor size and mouse weight were measured every 2 days from the day that treatment started until D26."}, "[2]": {"system": "MDA‐MB‐231 metastasis model", "experiment": "Anti-metastasis evaluation, MDA-MB-231 metastasis model", "format": "in vivo, mouse", "details": "MDA-MB-231 metastasis model, DOX 5 mg kg^−1", "from_the_text": "as §1\nFor the TNBC metastasis model, two kinds of treatments were developed. […] After seven times of injections, continued observation of the mice was carried out. […] In vivo imaging system (IVIS Lumina XRMS Ш, PerkinElmer, USA) was utilized again to estimate the tumor metastasis at D26. Meanwhile, the mice were sacrificed and the main organs (heart, livers, spleen, lung, and kidney) were separated for histological analysis."}, "MDA‐MB‐231 cells": {"system": "MDA‐MB‐231 cells", "experiment": "CCK-8 cell viability assay, MDA-MB-231", "format": "cell-based, human", "method": "(§2) MDA‐MB‐231 cells were incubated in 96‐well plates for 24 h (1 × 10^4 cells per well). […] At the appointed time, 10 µL CCK‐8 solution was dropped into each well and further co‐incubated with treated cells for 2 h. The absorbance values at 450 nm were measured by an automated plate reader (iMark (168‐1130), Biorad, USA). The IC50 values were obtained from Microsoft Excel's FORECAST formula."}, "[3]": {"experiment": "Morphological transformation / particle size by DLS and TEM in PBS of different pH", "format": "physicochemical", "details": "TEM, PBS pH 6.5"}, "MCF‐10A cells": {"system": "MCF‐10A cells", "experiment": "CCK-8 cell viability assay, MCF-10A", "format": "cell-based, human", "details": "24 h", "method": "as §2\nmammary epithelial cell line MCF-10A after 24 h incubation. Data are presented as\nmeans ± standard deviations (n = 3).\n(§3) (1 picture or pasted object on this page, not shown here)"}, "MCF‐7 cells": {"system": "MCF‐7 cells", "experiment": "CCK-8 cell viability assay, MCF-7", "format": "cell-based, human", "details": "MCF-7, 24 h", "method": "as §2\nbreast cancer cell line MCF-7 after 24 h incubation. Data are presented as means ±\nstandard deviations (n = 3).\nas §3"}}, "note": "Starred links: 1 amine or outer side, 2 acyl side, 3 side chain; linkers in the order of their positions; H or OH if unused. Residues, ends and D or L forms follow the SMILES beside them. *: point of attachment. Doxorubicin(3'-N) = COc1cccc2c1C(=O)c1c(O)c3c(c(O)c1C2=O)C[C@@](O)(C(=O)CO)C[C@@H]3O[C@H]1C[C@H](N*)[C@H](O)[C@H](C)O1; Suc = O=C(CCC(=O)[*:2])[*:1]", "data": [{"smiles": "COc1cccc2c1C(=O)c1c(O)c3c(c(O)c1C2=O)C[C@@](O)(C(=O)CO)C[C@@H]3O[C@H]1C[C@H](N)[C@H](O)[C@H](C)O1", "note": "[DOX, doxorubicin, reference compound]", "values": [{"measurement": "Histological analysis of major organs", "setting": "healthy ICR mice; 14 days after single dose, 40 mg kg^−1 DOX (or DOX equivalent)", "result": "disordered arrangement of myofilaments, glomerulosclerosis, and protein casts"}, {"measurement": "Blood biochemistry: ALT and ALP activity", "setting": "healthy ICR mice; 14 days after single injection, with increasing dose, n = 3", "result": "gradually decreased"}, {"measurement": "Death / body weight in tumor-bearing mice", "setting": "[1]", "result": "cause death"}, {"measurement": "Survival in metastasis model", "setting": "[2]", "result": "no mice survived up to day 14 (D14)"}]}, {"smiles": "COc1cccc2c1C(=O)c1c(O)c3c(c(O)c1C2=O)C[C@@](O)(C(=O)CO)C[C@@H]3O[C@H]1C[C@H](NC(=O)CCC(=O)N2CCC[C@H]2C(=O)N[C@@H](CC(C)C)C(=O)NCC(=O)O)[C@H](O)[C@H](C)O1", "note": "[DOX‐P3]", "values": [{"measurement": "IC50 with extended incubation time", "setting": "MDA‐MB‐231 cells; MDA-MB-231, 36 and 48 h versus 24 h", "result": "further reduced"}]}, {"smiles": "CC[C@H](C)[C@H](NC(=O)[C@@H]1CCCN1C(=O)[C@H](CC(N)=O)NC(=O)[C@H](CC(N)=O)NC(=O)[C@H](Cc1ccc(O)cc1)NC(=O)[C@H](Cc1c[nH]cn1)NC(=O)[C@H](CCCNC(=N)N)NC(=O)CNC(=O)[C@H](CCCNC(=N)N)NC(=O)[C@@H](N)C(C)C)C(=O)N[C@@H](Cc1c[nH]c2ccccc12)C(=O)N[C@@H](CCCNC(=N)N)C(=O)N[C@@H](CCC(N)=O)C(=O)N[C@@H](CCCNC(=N)N)C(=O)N[C@@H](Cc1ccc(O)cc1)C(N)=O", "note": "[P15] (H-VRGRHYNNPIWRQRY-NH2)", "values": [{"measurement": "Morphology by TEM", "setting": "[3]", "result": "fibroid aggregations"}]}, {"smiles": "CC[C@H](C)[C@H](NC(=O)[C@@H]1CCCN1C(=O)[C@H](CC(N)=O)NC(=O)[C@H](CC(N)=O)NC(=O)[C@H](Cc1ccc(O)cc1)NC(=O)[C@H](Cc1c[nH]cn1)NC(=O)[C@H](CCCNC(=N)N)NC(=O)[C@@H](NC(=O)[C@H](CCCNC(=N)N)NC(=O)CNC(=O)CNC(=O)[C@H](CC(C)C)NC(=O)[C@@H]1CCCN1C(=O)CCC(=O)N[C@H]1C[C@H](O[C@H]2C[C@](O)(C(=O)CO)Cc3c(O)c4c(c(O)c32)C(=O)c2c(OC)cccc2C4=O)O[C@@H](C)[C@H]1O)C(C)C)C(=O)N[C@@H](Cc1c[nH]c2ccccc12)C(=O)N[C@@H](CCCNC(=N)N)C(=O)N[C@@H](CCC(N)=O)C(=O)N[C@@H](CCCNC(=N)N)C(=O)N[C@@H](Cc1ccc(O)cc1)C(N)=O", "note": "[DOX‐P18R] ({Doxorubicin(3'-N)-Suc}-PLGGRVRHYNNPIWRQRY-NH2)", "values": [{"measurement": "IC50 (cytotoxicity), in words", "setting": "MDA‐MB‐231 cells; MDA-MB-231, 24 h", "result": "particularly high IC50 values"}, {"measurement": "IC50 (cytotoxicity), in words", "setting": "MCF‐10A cells", "result": "particularly high IC50 values"}, {"measurement": "IC50 (cytotoxicity), in words", "setting": "MCF‐7 cells", "result": "particularly high IC50 values"}]}]}
